Active and inactive are the calls of the source. The rule behind the calls is not given here.
Columns and labels:
[1] = tested on: MDA-MB-231; assay: Downregulation of p21 expression in human PR, ER, HER2-negative human MDA-MB-231 cells at 10 uM after 24 hrs by western blot analysis; assay type: functional, cell-based
[2] = tested on: MDA-MB-231; assay: Induction of apoptosis in human MDA-MB-231 cells assessed as necrotic cells at 10 uM after 48 hrs by annexin V/propidium iodide based flow cytometry (reference value: 4.4 +/-0.4%); assay type: functional
[3] = tested on: MDA-MB-231; assay: Cell cycle arrest in PR, ER, HER2-negative human MDA-MB-231 cells assessed as accumulation at G0/G1 phase at 10 uM after 30 hrs by flow cytometer (reference value: 49.8 +/-1.5%); assay type: functional
[4] = tested on: AU565; assay: Total growth inhibition of ER-negative, HER2-positive human AU565 cells at >15 uM after 48 hrs by WST-1 assay; assay type: functional, cell-based
[5] = tested on: MDA-MB-231; assay: Induction of apoptosis in human MDA-MB-231 cells assessed as viable cells at 1 uM after 48 hrs by annexin V/propidium iodide based flow cytometry (reference value: 93.2 +/-0.9%); assay type: functional; settings: MDA-MB-231, 48 h, read-out: Activity
[6] = tested on: MDA-MB-231; assay: Induction of apoptosis in human MDA-MB-231 cells assessed as viable cells at 5 uM after 48 hrs by annexin V/propidium iodide based flow cytometry (reference value: 93.2 +/-0.9%); assay type: functional; settings: MDA-MB-231, 48 h, read-out: Activity
[7] = tested on: MDA-MB-468; assay: Growth inhibition of PR, ER, HER2-negative human MDA-MB-468 cells after 48 hrs by WST-1 assay; assay type: functional, cell-based
[8] = tested on: MDA-MB-231; assay: Induction of apoptosis in human MDA-MB-231 cells assessed as necrotic cells at 5 uM after 48 hrs by annexin V/propidium iodide based flow cytometry (reference value: 4.4 +/-0.4%); assay type: functional
[9] = tested on: MDA-MB-231; assay: Cell cycle arrest in PR, ER, HER2-negative human MDA-MB-231 cells assessed as accumulation at G0/G1 phase at 1 uM after 30 hrs by flow cytometer (reference value: 49.8 +/-1.5%); assay type: functional
[10] = tested on: MCF7; assay: Growth inhibition of ER-positive, HER2-negative human MCF7 cells after 48 hrs by WST-1 assay; assay type: functional, cell-based
[11] = tested on: MDA-MB-231; assay: Induction of apoptosis in human MDA-MB-231 cells assessed as apoptotic cells at 1 uM after 48 hrs by annexin V/propidium iodide based flow cytometry (reference value: 2.4 +/-0.5%); assay type: functional
[12] = tested on: MDA-MB-231; assay: Cell cycle arrest in PR, ER, HER2-negative human MDA-MB-231 cells assessed as accumulation at S phase at 10 uM after 30 hrs by flow cytometer (reference value: 33.1 +/-0.3%); assay type: functional
[13] = tested on: MDA-MB-231; assay: Cell cycle arrest in PR, ER, HER2-negative human MDA-MB-231 cells assessed as accumulation at S phase at 1 uM after 30 hrs by flow cytometer (reference value: 33.1 +/-0.3%); assay type: functional
[14] = tested on: MDA-MB-231; assay: Cell cycle arrest in PR, ER, HER2-negative human MDA-MB-231 cells assessed as accumulation at G2/M phase at 10 uM after 30 hrs by flow cytometer (reference value: 17.1 +/-2.1%); assay type: functional
[15] = tested on: MDA-MB-231; assay: Cell cycle arrest in PR, ER, HER2-negative human MDA-MB-231 cells assessed as accumulation at G2/M phase at 1 uM after 30 hrs by flow cytometer (reference value: 17.1 +/-2.1%); assay type: functional
[16] = tested on: MDA-MB-231; assay: Induction of apoptosis in human MDA-MB-231 cells assessed as apoptotic cells at 5 uM after 48 hrs by annexin V/propidium iodide based flow cytometry (reference value: 2.4 +/-0.5%); assay type: functional
[17] = tested on: MDA-MB-361; assay: Growth inhibition of ER-positive, HER2-positive human MDA-MB-361 cells after 48 hrs by WST-1 assay; assay type: functional, cell-based
[18] = tested on: MDA-MB-231; assay: Induction of apoptosis in human MDA-MB-231 cells assessed as viable cells at 10 uM after 48 hrs by annexin V/propidium iodide based flow cytometry (reference value: 93.2 +/-0.9%); assay type: functional; settings: MDA-MB-231, 48 h, read-out: Activity
[19] = tested on: MDA-MB-231; assay: Induction of apoptosis in human MDA-MB-231 cells assessed as necrotic cells at 1 uM after 48 hrs by annexin V/propidium iodide based flow cytometry (reference value: 4.4 +/-0.4%); assay type: functional
[20] = tested on: HMEC; assay: Cytotoxicity against human HMEC assessed as growth inhibition after 48 hrs by WST-1 assay; assay type: cell-based
[21] = tested on: MDA-MB-231; assay: Growth inhibition of PR, ER, HER2-negative human MDA-MB-231 cells at <25 uM after 48 hrs by WST-1 assay; assay type: functional, cell-based
[22] = tested on: MDA-MB-231; assay: Induction of apoptosis in human MDA-MB-231 cells assessed as apoptotic cells at 10 uM after 48 hrs by annexin V/propidium iodide based flow cytometry (reference value: 2.4 +/-0.5%); assay type: functional
[23] = tested on: MDA-MB-468; assay: Cytotoxicity against PR, ER, HER2-negative human MDA-MB-468 cells after 48 hrs by WST-1 assay; assay type: functional, cell-based
[24] = tested on: MCF7; assay: Total growth inhibition of ER-positive, HER2-negative human MCF7 cells after 48 hrs by WST-1 assay; assay type: functional, cell-based
[25] = tested on: MDA-MB-231; assay: Growth inhibition of PR, ER, HER2-negative human MDA-MB-231 cells at 1 uM after 48 hrs by WST-1 assay in presence of mevalonate; assay type: functional, cell-based
[26] = tested on: AU565; assay: Growth inhibition of ER-negative, HER2-positive human AU565 cells after 48 hrs by WST-1 assay; assay type: functional, cell-based
[27] = tested on: MDA-MB-231; assay: Cytotoxicity against PR, ER, HER2-negative human MDA-MB-231 cells after 48 hrs by WST-1 assay; assay type: functional, cell-based
[28] = tested on: MDA-MB-231; assay: Induction of p21 expression in human PR, ER, HER2-negative human MDA-MB-231 cells at 1 to 10 uM after 24 hrs by western blot analysis; assay type: functional, cell-based
[29] = tested on: MDA-MB-231; assay: Total growth inhibition of PR, ER, HER2-negative human MDA-MB-231 cells at >10 uM after 48 hrs by WST-1 assay; assay type: functional, cell-based
[30] = tested on: MDA-MB-468; assay: Total growth inhibition of PR, ER, HER2-negative human MDA-MB-468 cells after 48 hrs by WST-1 assay; assay type: functional, cell-based
[31] = tested on: MDA-MB-231; assay: Growth inhibition of PR, ER, HER2-negative human MDA-MB-231 cells after 48 hrs by WST-1 assay in presence of geranylgeranyl pyrophosphate; assay type: functional, cell-based
[32] = tested on: Serum; assay: Stability of the compound in mouse serum at 1 mM after 2 hrs by RP-HPLC analysis; assay type: ADME; settings: 1000 µM
[33] = tested on: AU565; assay: Growth inhibition of ER-negative, HER2-positive human AU565 cells at >5 uM after 48 hrs by WST-1 assay; assay type: functional, cell-based
[34] = tested on: HMEC; assay: Cytotoxicity against human HMEC at 25 uM after 48 hrs by WST-1 assay; assay type: cell-based
[35] = tested on: HMEC; assay: Cytotoxicity against human HMEC at >15 uM after 48 hrs by WST-1 assay; assay type: cell-based
[36] = tested on: MDA-MB-468; assay: Cytotoxicity against PR, ER, HER2-negative human MDA-MB-468 cells at >7.5 uM after 48 hrs by WST-1 assay; assay type: functional, cell-based
[37] = tested on: MDA-MB-361; assay: Cytotoxicity against ER-positive, HER2-positive human MDA-MB-361 cells at higher concentration after 48 hrs by WST-1 assay; assay type: functional, cell-based
[38] = tested on: MDA-MB-231; assay: Stability of the compound in human MDA-MB-231 cells assessed as DHA content at 5 uM after 24 hrs by gas chromatography; assay type: ADME, cell-based; settings: mda-mb-231, 24 h
[39] = tested on: AU565; assay: Cytotoxicity against ER-negative, HER2-positive human AU565 cells after 48 hrs by WST-1 assay; assay type: functional, cell-based
[40] = tested on: MDA-MB-231; assay: Cytotoxicity against PR, ER, HER2-negative human MDA-MB-231 cells assessed as decrease in cell viability at >5 uM after 48 hrs by WST-1 assay; assay type: functional, cell-based

Row | Compound | inhibition [1] | Activity [2] [%] | Activity [3] [%] | viability at 1 µM [5] [%] | viability at 5 µM [6] [%] | Activity [8] [%] | Activity [9] [%] | growth inhibition (GI) [10] | Activity [11] [%] | Activity [12] [%] | Activity [13] [%] | Activity [14] [%] | Activity [15] [%] | Activity [16] [%] | growth inhibition (GI) [17] | viability at 10 µM [18] [%] | Activity [19] [%] | Activity [20] | Activity [22] [%] | growth inhibition (GI) [25] | also measured
1 | CC/C=C\C/C=C\C/C=C\C/C=C\C/C=C\C/C=C\CCC(=O)O [DOCONEXENT] | Active | 5.6 | 50.8 | 94.5 | 96.5 | 2.4 | 48.7 | Active | 2.6 | 33 | 33.8 | 16.2 | 17.5 | 1.1 | Active | 92.5 | 2.9 | Dose-dependent effect | 1.9 | – | TGI [4]: Active; growth inhibition (GI) [7]: Active; growth inhibition (GI) [21]: Active
2 | CC[C@H](C)C(=O)O[C@H]1C[C@@H](C)C=C2C=C[C@H](C)[C@H](CC[C@@H]3C[C@@H](O)CC(=O)O3)[C@H]21 [LOVASTATIN] | – | 11.2 | 83.9 | 89.7 | 84.3 | 10.8 | 74.7 | – | 2.5 | 9.8 | 16.3 | 6.3 | 9 | 4.9 | Active | 84.2 | 7.8 | Toxic | 4.6 | inactive | Activity [23]: inactive; TGI [24]: Active; growth inhibition (GI) [26]: Active; Activity [27]: inactive; Activity [28]: Active; TGI [29]: Active; TGI [30]: Active; growth inhibition (GI) [31]: inactive
3 | CC/C=C\C/C=C\C/C=C\C/C=C\C/C=C\C/C=C\CCC(=O)O[C@H]1CC(=O)O[C@H](CC[C@@H]2[C@@H]3C(=C[C@H](C)C[C@@H]3OC(=O)[C@@H](C)CC)C=C[C@@H]2C)C1 | Active | 35.4 | 51.2 | 84.1 | 83.3 | 9.6 | 47.8 | Active | 9.2 | 34.8 | 34.9 | 14.1 | 17.3 | 7.2 | – | 40 | 6.7 | – | 24.6 | Active | Stability [32]: Stable; growth inhibition (GI) [33]: Active; Activity [34]: 25%; Activity [35]: Toxic; Activity [36]: Active; Activity [37]: Active; Stability [38]: Stable; Activity [39]: inactive; Activity [40]: Active
